Test [1] addresses T1, follicle-stimulating hormone (FSH) receptor (Rattus norvegicus, UniProt P20395).
T1 construct: endogenous in cells; host or cells: rat granulosa cells
T1 sequence (P20395 18-692): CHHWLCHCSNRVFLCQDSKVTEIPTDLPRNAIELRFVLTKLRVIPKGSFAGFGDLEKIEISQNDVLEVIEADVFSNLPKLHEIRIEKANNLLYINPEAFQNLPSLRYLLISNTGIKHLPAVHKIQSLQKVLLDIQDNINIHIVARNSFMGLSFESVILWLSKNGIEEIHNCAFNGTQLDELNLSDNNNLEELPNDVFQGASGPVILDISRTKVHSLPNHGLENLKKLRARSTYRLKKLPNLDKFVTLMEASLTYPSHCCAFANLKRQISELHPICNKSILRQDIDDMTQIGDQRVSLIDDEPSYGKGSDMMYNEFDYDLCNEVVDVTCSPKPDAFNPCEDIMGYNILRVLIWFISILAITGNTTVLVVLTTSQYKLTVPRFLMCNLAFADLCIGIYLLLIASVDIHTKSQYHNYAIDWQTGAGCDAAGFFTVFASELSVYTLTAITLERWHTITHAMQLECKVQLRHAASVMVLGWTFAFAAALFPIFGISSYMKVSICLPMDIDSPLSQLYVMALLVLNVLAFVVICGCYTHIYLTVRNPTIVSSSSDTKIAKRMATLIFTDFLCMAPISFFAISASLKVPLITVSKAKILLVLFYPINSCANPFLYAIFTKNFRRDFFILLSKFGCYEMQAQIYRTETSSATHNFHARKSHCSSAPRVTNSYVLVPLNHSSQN
Put plainly: Rat granulosa EC50 FSH (Assay B). Particulars: rat granulosa cells; for EC50: per Yanofsky et al. 2006. Format: cell-based. On the procedure:
Rat Granulosa EC50 FSH (Assay B)
The assay was performed pursuant to the teaching of Yanofsky et al. (2006) Allosteric activation of the follicle-stimulating hormone (FSH) receptor by selective, nonpeptide agonists. JBC 281(19): 13226-13233, which is incorporated by reference in the disclosure of the invention.

For test [2], the target named is T2, FSHR (Homo sapiens, UniProt P23945).
T2 construct: expressed in transfected cells; host or cells: CHO (Cho-FSHR-LUC-1-1-43)
T2 sequence (P23945 18-695): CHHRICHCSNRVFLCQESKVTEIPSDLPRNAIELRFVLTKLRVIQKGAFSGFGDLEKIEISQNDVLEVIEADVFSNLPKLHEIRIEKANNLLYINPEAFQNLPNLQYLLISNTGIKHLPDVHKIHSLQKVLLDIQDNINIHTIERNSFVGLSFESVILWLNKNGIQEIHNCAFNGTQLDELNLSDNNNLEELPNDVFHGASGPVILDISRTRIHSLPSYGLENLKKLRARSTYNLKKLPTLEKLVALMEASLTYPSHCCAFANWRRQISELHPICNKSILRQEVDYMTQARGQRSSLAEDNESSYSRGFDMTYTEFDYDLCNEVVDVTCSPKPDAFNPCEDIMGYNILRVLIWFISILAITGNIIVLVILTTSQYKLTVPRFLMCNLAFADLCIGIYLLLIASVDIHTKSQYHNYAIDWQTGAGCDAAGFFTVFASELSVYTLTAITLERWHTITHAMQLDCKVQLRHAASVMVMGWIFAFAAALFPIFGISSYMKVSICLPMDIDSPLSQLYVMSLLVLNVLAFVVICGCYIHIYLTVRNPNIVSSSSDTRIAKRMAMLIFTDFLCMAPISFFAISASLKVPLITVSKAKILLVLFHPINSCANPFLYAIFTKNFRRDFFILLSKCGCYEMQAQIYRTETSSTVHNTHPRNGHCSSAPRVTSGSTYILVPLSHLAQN
Put plainly: EC50 of cyclic AMP production in CHO FSHR cells + EC20 FSH (Assay A). It is filed as cell-based. Conditions: CHO-FSHR-LUC cells, 0.265 pM FSH (EC20), cAMP HTRF, 1 h. How it is done:
EC50 of Cyclic AMP Production in CHO FSHR Cells+EC20 FSH (Assay A)
2500 Cho-FSHR-LUC-1-1-43 cells were plated per well in 5 μl of phenol red free DMEM/F12+1% FBS. Cells were plated in 384 well, solid white low volume plates (Greiner 784075) by Multidrop. Cells were assayed by adding 100 μl of 2×EC20 FSH/IBMX in DMEM/F12+0.1% BSA) by Multidrop to 2 μl of test compound stamped in 384 well plates (compounds are diluted 1:50). The final FSH concentration was 0.265 pM, and the final IBMX concentration was 200 μM. The compound plate map was as follows: Column 1: 2 μl of DMSO; Column 2: 2 μl of DMSO; Columns 3-12 and 13-24: 2 μl of test compound, diluted 1:4 in 100% DMSO, or 2 μl of FSH, diluted 1:4 in DMEM/F12+0.1% BSA. The starting concentration for FSH was 50 nM (final concentration was 0.5 nM). Furthermore, Column 23 contained 2 μl of EC100 FSH reference (100×) (diluted in DMEM/F12+0.1% BSA) at a final concentration of 0.5 nM, and Column 24 contained 2 μl of 1 mM AS707664/2 reference compound 2. 5 μl of compound+EC20 FSH mixture were transferred to cell plates (1:2 dilution into 5 μl of cell media). The plates were incubated at 37° C. for 1 h. 10 μl of mixed HTRF (CisBio #62AM4PEC) reagents were added per well and incubated at room temperature for 1 h. The plates were read on Envision using the cAMP HTRF—low volume 384 well protocol. The readout was the calculated fluorescence ratio (665 nm/620 nm).

The EC50 is the concentration needed to bring the measured effect to its halfway point. `COc1ccc(C2=NN(C(=O)c3cccc(F)c3)CC2)cc1OC` [Compound 1]: the EC50 in test [1] turned out to be 0.878 µM; in test [2], 16.7 µM.
The matching figures for `COc1ccc(C2=NN(C(=O)c3ccc4c(c3)OCO4)CC2)cc1OC` [Compound 3]: 0.656 µM and 40.3 µM.
Take `COc1ccc(C2=NN(C(=O)c3cccc(Br)c3)CC2)cc1OC` [Compound 61]: the values for the concentration for a half-maximal effect (EC50) in test [1] and in test [2] were 0.465 µM and 9.75 µM, respectively.
Taken in the same sequence, the figures for `COc1ccc(C2=NN(C(=O)c3cccc(Cl)c3)CC2)cc1OC` [Compound 62] were 0.0981 µM and 6.49 µM.
Taken in the same sequence, the figures for `COc1ccc(C2=NN(C(=O)c3cccc(C(F)(F)F)c3)CC2)cc1OC` [Compound 64] were 0.348 µM and 11 µM.
The matching figures for `COc1ccc(C2=NN(C(=O)c3cccc(C)c3)CC2)cc1OC` [Compound 65]: 5.09 µM and 21 µM.
Take `COc1ccc(C2=NN(C(=O)c3cccc(OC(C)(F)F)c3)CC2)cc1OC` [Compound 67]: the EC50 is 0.814 µM in test [1] and 21 µM in test [2].
The matching figures for `COc1ccc(C2=NN(C(=O)c3cccc(Oc4ccccc4)c3)CC2)cc1OC` [Compound 70]: 0.11 µM and 39 µM.
In the case of `COc1ccc(C2=NN(C(=O)c3ccc(C(F)(F)F)c(F)c3)CC2)cc1OC` [Compound 75], in test [2], the EC50 turned out to be 5.7 µM.
Take `COc1ccc(C2=NN(C(=O)c3cccc(F)c3F)CC2)cc1OC` [Compound 77]: the EC50 in test [1] was 0.729 µM; in test [2], 8.61 µM.
Turning to `COc1ccc(C2=NN(C(=O)c3cc(F)c(F)c(F)c3F)CC2)cc1OC` [Compound 80], the half-maximal effective concentration (EC50) in test [1] stood at 1.19 µM; in test [2], 28 µM.
Turning to `COc1ccc(C2=NN(C(=O)c3cccc(F)c3)CC2(C)C)cc1OC` [Compound 149, [3-(3,4-Dimethoxy-phenyl)-4,4-dimethyl-4,5-dihydro-pyrazol-1-yl]-(3-fluoro-phenyl)-methanone], the EC50 in test [2] worked out at 0.382 µM.
Same read-out and setting: the same measure for `Cc1cccc(C2=NN(C(=O)c3cccc(F)c3)CC2)c1` [Compound 179, (3-Fluoro-phenyl)-(3-m-tolyl-4,5-dihydro-pyrazol-1-yl)-methanone]: 34 µM; for `Cn1ccc2cc(C3=NN(C(=O)c4cccc(F)c4)CC3)ccc21` [Compound 185]: 4.5 µM; for `O=C(c1cccc(F)c1)N1CCC(c2ccc3c(c2)OCCO3)=N1` [Compound 189]: 28 µM.
The same measure, in the same setting: the same measure for `O=C(c1ccc2c(c1)OCO2)N1CCC(c2ccc(OC(F)(F)F)cc2)=N1` [Compound 199, Benzo[1,3]dioxol-5-yl-[3-(4-trifluoromethoxy-phenyl)-4,5-dihydro-pyrazol-1-yl]methanone]: 34.3 µM; for `CSc1ccc(C2=NN(C(=O)c3cccc(F)c3)CC2)cc1` [Compound 204, (3-Fluoro-phenyl)-[3-(4-methylsulfanyl-phenyl)-4,5-dihydro-pyrazol-1-yl]methanone]: 8.25 µM; for `CSc1ccc(C2=NN(C(=O)c3ccc4c(c3)OCO4)CC2)cc1` [Compound 205, Benzo[1,3]dioxol-5-yl-[3-(4-methylsulfanyl-phenyl)-4,5-dihydro-pyrazol-1-yl]-methanone]: 30 µM.
Same read-out and setting: the same measure for `O=C(c1cccc(F)c1)N1CCC(c2ccc(C(F)(F)F)cc2)=N1` [Compound 207]: 44.5 µM; for `CC(C)(C)Oc1ccc(C2=NN(C(=O)c3cccc(F)c3)CC2)cc1` [Compound 210]: 7.39 µM; for `COc1ccc(C2=NN(C(=O)c3cccc(F)c3)CC2)cc1S(=O)(=O)NCc1ccccc1` [Compound 214]: 1.1 µM.
With `COc1ccc(C2=NN(C(=O)c3cccc(F)c3)CC2)c(OC)c1OC` [Compound 223], the EC50 in test [2] stood at 31.2 µM.
In test [1], `COc1ccc(C2=NN(C(=O)c3ccccc3F)C(C)(C)C2)cc1OC` [Compound 228, [3-(3,4-Dimethoxy-phenyl)-5,5-dimethyl-4,5-dihydro-pyrazol-1-yl]-(2-fluoro-phenyl)-methanone] registered an EC50 of 0.134 µM.
Compound `COc1ccc(C2=NN(C(=O)c3cccc(Oc4ccccc4)c3)C(C)(C)C2)cc1OC` [Compound 229, [3-(3,4-Dimethoxy-phenyl)-5,5-dimethyl-4,5-dihydro-pyrazol-1-yl]-(3-phenoxy-phenyl)-methanone] returned an EC50 in test [1] of 0.032 µM.
As for `COc1ccc(C2=NN(C(=O)c3ccc(Cl)cc3)C(C)(C)C2)cc1OC` [Compound 247, (4-Chloro-phenyl)-[3-(3,4-dimethoxy-phenyl)-5,5-dimethyl-4,5-dihydro-pyrazol-1-yl]-methanone], the EC50 in test [2] was found to be 35.2 µM.
Consider `COc1ccc(C2=NN(C(=O)c3cccc(Cl)c3)C(C)(C)C2)cc1OC` [Compound 251, (3-Chloro-phenyl)-[3-(3,4-dimethoxy-phenyl)-5,5-dimethyl-4,5-dihydro-pyrazol-1-yl]-methanone], for which the EC50 in test [2] amounted to 27.1 µM.
Same read-out and setting: as for `COc1ccc(C2=NN(C(=O)Cc3cccc(F)c3)C(C)(C)C2)cc1OC` [Compound 255, 1-[3-(3,4-Dimethoxy-phenyl)-5,5-dimethyl-4,5-dihydro-pyrazol-1-yl]-2-(3-fluoro-phenyl)-ethanone], the figure is 35 µM.
Still for that read-out and setting: the same measure for `COc1ccc(C2=NN(C(=O)c3ccc(Br)cc3)C(C)(C)C2)cc1OC` [Compound 257, (4-Bromo-phenyl)-[3-(3,4-dimethoxy-phenyl)-5,5-dimethyl-4,5-dihydro-pyrazol-1-yl]-methanone]: 33.2 µM.
Still for that read-out and setting: as for `CCc1ccc(C(=O)N2N=C(c3ccc(OC)c(OC)c3)CC2(C)C)cc1` [Compound 259, [3-(3,4-Dimethoxy-phenyl)-5,5-dimethyl-4,5-dihydro-pyrazol-1-yl]-(4-ethyl-phenyl)-methanone], the figure is 30 µM; as for `COc1ccc(C2=NN(C(=O)C(OC)c3ccc(Cl)cc3)CC2)cc1OC` (stereo not drawn) [Compound 274], 25 µM; as for `COc1ccc(C(OC)C(=O)N2CCC(c3ccc(OC)c(OC)c3)=N2)cc1` (stereo not drawn) [Compound 275], 24 µM.
For `COc1ccc(C2=NN(C(=O)C(OC)c3cccc(C(F)(F)F)c3)CC2)cc1OC` (stereo not drawn) [Compound 277], the EC50 in test [2] turned out to be 2 µM.
Take `COc1ccc(C2=NN(C(=O)C(OC)c3ccc(C)cc3)CC2)cc1OC` (stereo not drawn) [Compound 282]: the EC50 in test [2] worked out at 27 µM.
As to `COc1ccc(C2=NN(C(=O)[C@H](OC)c3ccccc3)CC2)cc1OC` [Compound 290], a half-maximal effect in test [1] (EC50) was put at 5.4 µM.
Regarding `COc1ccc(C2=NN(C(=O)C(OC)c3ccccc3)CC2)cc1OC` (stereo not drawn) [Compound 291], the “Assay B: value given in % (rat granulosa)” value in test [1] (meaning of % not stated) was found to be 144.00%.

(Values after US9517227B2, “Dihydropyrazoles” (Merck Patent GmbH, priority 2011, dated 2016).)
